Test results taken from ChEMBL document CHEMBL1177833, “Synthesis and biological activity of 2-hydroxynicotinoyl-serine-butyl esters related to antibiotic UK-3A” (Bioorg Med Chem Lett, 2010).
Converted amounts (≈) assume the structure as drawn.

Assays:
Candida albicans [1] = test: Antimicrobial activity against Candida albicans after 18 to 24 hrs at 20 uL by disk diffusion assay; format: functional
Escherichia coli [2] = test: Antimicrobial activity against Escherichia coli at 20 uL after 18 to 24 hrs by disk diffusion method; format: functional
Bacillus subtilis [3] = test: Antimicrobial activity against Bacillus subtilis after 18 to 24 hrs; format: functional
Staphylococcus aureus [4] = test: Antimicrobial activity against Staphylococcus aureus at 20 uL after 18 to 24 hrs by disk diffusion method; format: functional
Escherichia coli [5] = test: Antimicrobial activity against Escherichia coli after 18 to 24 hrs; format: functional
Staphylococcus aureus [6] = test: Antimicrobial activity against Staphylococcus aureus after 18 to 24 hrs; format: functional
Artemia salina [7] = test: Toxicity in Artemia salina assessed as mortality at 100 ppm after 24 hrs; format: organism-based; conditions: in vivo
Artemia salina [8] = test: Toxicity in Artemia salina assessed as mortality at 1000 ppm after 24 hrs; format: organism-based; conditions: in vivo
Bacillus subtilis [9] = test: Antimicrobial activity against Bacillus subtilis at 20 uL after 18 to 24 hrs by disk diffusion method; format: functional
Artemia salina [10] = test: Toxicity in Artemia salina after 24 hrs; format: organism-based; conditions: in vivo
Artemia salina [11] = test: Toxicity in Artemia salina assessed as mortality at 250 ppm after 24 hrs; format: organism-based; conditions: in vivo
Candida albicans [12] = test: Antimicrobial activity against Candida albicans after 18 to 24 hrs; format: functional
Artemia salina [13] = test: Toxicity in Artemia salina assessed as mortality at 500 ppm after 24 hrs; format: organism-based; conditions: in vivo

SMILES	diameter of the inhibition zone (DIZ) (Candida albicans [1]) [mm]	diameter of the inhibition zone (DIZ) (Escherichia coli [2]) [mm]	MIC (Bacillus subtilis [3]) [µg/mL]	diameter of the inhibition zone (DIZ) (Staphylococcus aureus [4]) [mm]	MIC (Escherichia coli [5]) [µg/mL]	MIC (Staphylococcus aureus [6]) [µg/mL]	LC50 (Artemia salina [7]) [ppm]	LC50 (Artemia salina [8]) [ppm]	diameter of the inhibition zone (DIZ) (Bacillus subtilis [9]) [mm]	LC50 (Artemia salina [10]) [ppm]	LC50 (Artemia salina [11]) [ppm]	MIC (Candida albicans [12]) [µg/mL]	LC50 (Artemia salina [13]) [ppm]
CCCCCCCC(=O)OC[C@H](NC(=O)c1cccnc1O)C(=O)OCCCC	7.83	7	50 (≈ 122 µM)	7	75 (≈ 184 µM)	100 (≈ 245 µM)	0	11.02	7	3620.41	0	250 (≈ 612 µM)	2.78
CCCCOC(=O)[C@H](COC(C)=O)NC(=O)c1cccnc1O	7.5	7	250 (≈ 771 µM)	7.5	250 (≈ 771 µM)	250 (≈ 771 µM)	4.94	58.66	7	811.01	9.7	500 (≈ 1540 µM)	39.62
CCCC[C@H]1C(=O)O[C@H](C)[C@H](NC(=O)c2cccc(NC=O)c2O)C(=O)O[C@@H](C)[C@@H]1OC(=O)CC(C)C [ANTIMYCIN A3]	10	7	250 (≈ 480 µM)	8	50 (≈ 96 µM)	250 (≈ 480 µM)	–	–	8.5	–	–	50 (≈ 96 µM)	–
CCCCOC(=O)[C@H](COC(=O)CCc1ccccc1)NC(=O)c1cccnc1O	7.5	7.83	500 (≈ 1210 µM)	7.5	1000 (≈ 2410 µM)	1000 (≈ 2410 µM)	26.67	100	7	266.83	55.58	1000 (≈ 2410 µM)	76.67
